IC50, viability and TUNEL staining data for one compound are collected here from article PMC6274259, “New 3-Cyano-2-Substituted Pyridines Induce Apoptosis in MCF 7 Breast Cancer Cells” (Molecules, 2016).

Assay [1] relates to MDA-MB-231 human breast adenocarcinoma cell line. Description: WST-1 cell viability assay, MDA-MB-231. It counts as cell-based. Particulars: Homo sapiens, MDA-MB-231; WST-1, 24 h treatment, mean ± S.D of three independent experiments. From the text: (§1) The synthesized compounds were screened for their cytotoxicity on five cancer cell lines, namely SK-OV-3, MCF-7, MDA-MB-231, HCT-116 and RKO, using a WST colorimetric assay. The assay principle is based upon the reduction of the tetrazolium salt WST-1 to formazan by cellular mitochondrial dehydrogenases present in viable cells. […] Among the latter compounds the benzohydrazide derivative 9a emerged with the lowest IC50 in this study against MCF-7 cells compared to 5-FU. […] Based on the fact that 9a had less cytotoxic effects on normal breast epithelial cells it was subjected to further studies.
(§2) The following cell lines were used for the screening stage, obtained from the American Type Culture Collection (ATCC, Manassas, VA, USA); SK-OV-3 (HTB-77), MCF-12A (ATCC CRL-10782), MDA-MB-231 (ATCC HTB-26), HCT-116 (CCL-247), RKO (CRL-2577) and sub-culturing of the above cell lines was conducted in 75 cm^2 flasks. The old culture media was removed and discarded after assessing the confluency of the cells and the cells were rinsed with 2–3 mL diluted trypsin (1×) (trypsin/EDTA solution consists of 0.025% trypsin and 0.01% EDTA in PBS), for about 5 minutes for complete detachment. The cells were observed under the inverted microscope until the cell layer is completely dispersed. 75 cm^2 flasks were prepared and 16 mL of DMEM media for SK-OV-3, MCF-7, MDA-MB-231, (DMEM 4500 mg glucose) and RPMI media for HCT-116 were added to each flask. The cells were aspirated gently and added to the flasks. DMEM 4500 mg/L high glucose with 10% FBS, 5% streptomycin and penicillin, RPMI 1640 (prepared by adding 5% heat-inactivated FCS and 2 mm glutamine) were used. DMEM was also used for MCF-12A cells with the addition of human epidermal growth factor 20 ng/mL, insulin 0.01 mg/mL and hydrocortisone 500 ng/mL.
(§3) The synthesized compounds were screened for their anti-proliferative activity using 5-FU (F6627-1G, Sigma-Aldrich, St. Louis, MO, USA) as reference compound. A concentration of 0.4% DMSO was used in all experiment after ensuring 100% viability of the cell lines with this concentration. A 25 mM stock concentration of all compounds was prepared for further studies and analysis.
(§4) Cells were trypsinized and placed in a 15 mL Falcon tube, the cells were centrifuged for 3 min at 1000 rpm. Trypsin is decanted using a sterile pipette and then the pellet is loosened by flicking the tube few times then 5–10 mL warm DMEM or RPMI were added to the Falcon tube and the pellet is resuspended. Cell count was done next by taking 10 μL of the suspension into the cell counting slide and read under 10× cells/mL. A cell stock of 50,000 cells/mL was prepared for the 96 wells. Cells (100 μL) were added to each well using a sterile pipette each time to ensure consistency. The experiment was planned ahead of time using excel sheet, 3–6 wells were reserved as blank media while 3–6 wells for vehicle (DMSO). The plate was incubated for 24 h for compound treatment step. DMEM media was used to prepare different dilutions of the compounds. The old DMEM media was removed from the wells using sterile pipette in the hood and the media was replaced with 100 μL media with each compound. The plate was incubated for 24 h. After 24 h incubation, WST-1 reagent (Sigma) was added to each well and then the plate was incubated for 1 h before measuring the absorbance using VICTOR™ Multilabel Plate Reader (Perkin Elmer, Beaconsfield, UK). The absorbance of the colored solution can be quantified by measuring at a certain wavelength (usually between 500–600 nm), in this experiment the first reading was conducted at 540 nm and the second reading at 690 nm for the reference wavelength. The percentage of cell viability was determined as the ratio of the absorbance of the sample vs the control. Three independent experiments were performed. […] 5-Florouracil (Sigma-Aldrich, F6627-1G) was used as reference standard.

Assay [2] relates to HCT-116 human colon carcinoma cell line. The assay is described as follows: WST-1 cell viability assay, HCT-116. It counts as cell-based. To be noted: Homo sapiens, HCT-116; WST-1, 24 h treatment, mean ± S.D of three independent experiments.
Source text: as §1, §2, §3, §4

For assay [3], the system named is MCF-7 human breast adenocarcinoma cell line. Description: WST-1 cell viability assay, MCF-7. In kind it is cell-based. To be noted: for IC50: WST-1, 24 h treatment, mean ± S.D of three independent experiments.
Source text: as §1, §2, §3, §4

Assay [4] deals with RKO human colon carcinoma cell line. Description: WST-1 cell viability assay, RKO. To be noted: Homo sapiens, Colon carcinoma cell; WST-1, 24 h treatment, mean ± S.D of three independent experiments. It counts as cell-based.
Source text: as §1, §2, §3, §4

In the next assay the test system is MCF-7 cells. The assay is described as follows: TUNEL assay. It counts as cell-based, human. To be noted: 2 μM, 24 h, compared to control group. From the text: To ascertain induction of apoptosis of compound 9a on MCF-7 cells, the results were confirmed by immune histochemical analysis using a TUNEL assay. TUNEL assay involves labeling of the 3'-hydroxyl DNA ends generated during DNA fragmentation by means of rTdT and labeled dUTP. The localized fluorescence of apoptotic cells (labeled-dUTP) in a blue background (DAPI) for nuclei staining or green background (FITC) was visualized using fluorescence microscope.
For in situ detection of apoptotic cells, a terminal-deoxynucleotidyl transferase meditated nick end labeling (TUNEL) assay was performed using DeadEndTM fluorimetric tunnel system (Promega, Madison, WI, USA). Cells were cultured on 4-chamber slides (VWR, Radnor, PA, USA) at a density of 2 × 10^4 cells/ chamber. After treatment with compound 9a, cells were washed with phosphate buffer saline (PBS) and fixed by incubation in 4% paraformaldehyde (PFA) for 20 min at 4 °C, then permeabilized with 0.05% Triton X-100 for 5 min at 4 °C. The fixed cells were then incubated with […] dUTP in terminal deoxynucleotide transferase recombinant (rTdT)-catalyzed reaction and nucleotide mixture for 60 min at 37 °C in a humidified atmosphere and then immersed in stop/wash buffer for 15 min at room temperature. Cells were then washed with PBS to remove unincorporated fluorescein-12-dUTP. […]

As for `COc1ccc(-c2cc(-c3ccc(OC)c(OC)c3)c(C#N)c(OCC(=O)NNC(=O)c3ccccc3)n2)cc1OC` [Compound 9a, N'-[2-(3-cyano-4,6-bis(3,4-dimethoxyphenyl)pyridin-2-yloxy)acetyl]benzohydrazide], the IC50 came to 22.3 ± 0.88 µM in assay [1]; 7.12 ± 0.37 µM in assay [2]; 2 µM in assay [3] (Homo sapiens, MCF7, 24 h); 2.04 ± 0.13 µM in assay [3]; 8.22 ± 0.99 µM in assay [4]. Further, the viability at 2 µM in assay [3] (Homo sapiens, MCF7, 2 μM, 24 h, WST-1, read-out: cell viability in MCF-7 cells) was about 50%. Besides, the TUNEL staining result in the assay on MCF-7 cells was “presence of nuclear condensation and TUNEL-positive cells”.
